According to PubChem BioAssay AID2060492 (Molecular Pharmacology Branch, DTP, NCI, 2025):

System: 695427-040-R-J1-PDC complex spheroids, viability percent T/C
Experiment: Anticancer human tumor 695427-040-R-J1-PDC patient-derived colon adenocarcinoma cell line growth inhibition [GQUAD]
Conditions: for IC50: curve of first compound; for viability, T/C: stronger effect = lower value
Outline: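 Viability of tumor cells grown as complex spheroids with endothelial and stromal cells, exposed to drug combinations. Top concentration at or near clinical Cmax (else 10 microM), diluted in half-log increments.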

[1] = second compound 0.0316 µM, first compound 0.0316 µM
[2] = second compound 0.0316 µM, first compound 0.316 µM
[3] = second compound 0.1 µM, first compound 0.0316 µM
[4] = second compound 0.1 µM, first compound 0.316 µM
[5] = second compound 0.316 µM, first compound 0.0316 µM
[6] = second compound 0.316 µM, first compound 0.316 µM
[7] = second compound 1 µM, first compound 0.0316 µM
[8] = second compound 1 µM, first compound 0.316 µM
[9] = second compound 3.16 µM, first compound 0.0316 µM
[10] = second compound 3.16 µM, first compound 0.316 µM
[11] = second compound 10 µM, first compound 0.0316 µM
[12] = second compound 10 µM, first compound 0.316 µM
[13] = second compound 0.0316 µM, first compound 0.1 µM
[14] = second compound 0.0316 µM, first compound 1 µM
[15] = second compound 0.0316 µM, first compound 3.16 µM
[16] = second compound 0.0316 µM, first compound 10 µM
[17] = second compound 0.1 µM, first compound 0.1 µM
[18] = second compound 0.1 µM, first compound 1 µM
[19] = second compound 0.1 µM, first compound 3.16 µM
[20] = second compound 0.1 µM, first compound 10 µM
[21] = second compound 0.316 µM, first compound 0.1 µM
[22] = second compound 0.316 µM, first compound 1 µM
[23] = second compound 0.316 µM, first compound 3.16 µM
[24] = second compound 0.316 µM, first compound 10 µM
[25] = second compound 1 µM, first compound 0.1 µM
[26] = second compound 1 µM, first compound 1 µM
[27] = second compound 1 µM, first compound 3.16 µM
[28] = second compound 1 µM, first compound 10 µM
[29] = second compound 3.16 µM, first compound 0.1 µM
[30] = second compound 3.16 µM, first compound 1 µM
[31] = second compound 3.16 µM, first compound 3.16 µM
[32] = second compound 3.16 µM, first compound 10 µM
[33] = second compound 10 µM, first compound 0.1 µM
[34] = second compound 10 µM, first compound 1 µM
[35] = second compound 10 µM, first compound 3.16 µM
[36] = second compound 10 µM, first compound 10 µM
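Note: spheroids exposed to compounds for seven days before readout.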

## CC[C@@]1(O)C(=O)OCc2c1cc1n(c2=O)Cc2cc3c(CN(C)C)c(O)ccc3nc2-1 + Cc1cnc(CNC(=O)c2c(=O)c3ccc(N4CCCN(C)CC4)nc3n3c2sc2ccccc23)cn1
Second compound 0.0316 µM
  IC50: > 0.316 µM
Second compound 0.1 µM
  IC50: > 0.316 µM
Second compound 0.316 µM
  IC50: > 0.316 µM
Second compound 1 µM
  IC50: > 0.316 µM
Second compound 3.16 µM
  IC50: < 0.000999 µM
Second compound 10 µM
  IC50: < 0.000999 µM
Second compound 0.0316 µM, first compound 0.000999 µM
  viability, T/C: 92.5%
Second compound 0.0316 µM, first compound 0.00316 µM
  viability, T/C: 82.5%
Second compound 0.0316 µM, first compound 0.00999 µM
  viability, T/C: 89.7%
[1]
  viability, T/C: 76%
Second compound 0.0316 µM, first compound 0.0999 µM
  viability, T/C: 82.8%
[2]
  viability, T/C: 79.2%
Second compound 0.1 µM, first compound 0.000999 µM
  viability, T/C: 95.5%
Second compound 0.1 µM, first compound 0.00316 µM
  viability, T/C: 74.4%
Second compound 0.1 µM, first compound 0.00999 µM
  viability, T/C: 90.8%
[3]
  viability, T/C: 67.7%
Second compound 0.1 µM, first compound 0.0999 µM
  viability, T/C: 91.6%
[4]
  viability, T/C: 77.5%
Second compound 0.316 µM, first compound 0.000999 µM
  viability, T/C: 73.2%
Second compound 0.316 µM, first compound 0.00316 µM
  viability, T/C: 66.6%
Second compound 0.316 µM, first compound 0.00999 µM
  viability, T/C: 69%
[5]
  viability, T/C: 61.1%
Second compound 0.316 µM, first compound 0.0999 µM
  viability, T/C: 80.5%
[6]
  viability, T/C: 65.6%
Second compound 1 µM, first compound 0.000999 µM
  viability, T/C: 56.4%
Second compound 1 µM, first compound 0.00316 µM
  viability, T/C: 69.8%
Second compound 1 µM, first compound 0.00999 µM
  viability, T/C: 58.3%
[7]
  viability, T/C: 65.7%
Second compound 1 µM, first compound 0.0999 µM
  viability, T/C: 70.9%
[8]
  viability, T/C: 63.8%
Second compound 3.16 µM, first compound 0.000999 µM
  viability, T/C: 45.8%
Second compound 3.16 µM, first compound 0.00316 µM
  viability, T/C: 56.8%
Second compound 3.16 µM, first compound 0.00999 µM
  viability, T/C: 54.8%
[9]
  viability, T/C: 53.5%
Second compound 3.16 µM, first compound 0.0999 µM
  viability, T/C: 65.7%
[10]
  viability, T/C: 48.4%
Second compound 10 µM, first compound 0.000999 µM
  viability, T/C: 28.6%
Second compound 10 µM, first compound 0.00316 µM
  viability, T/C: 51.3%
Second compound 10 µM, first compound 0.00999 µM
  viability, T/C: 54%
[11]
  viability, T/C: 49.4%
Second compound 10 µM, first compound 0.0999 µM
  viability, T/C: 48.8%
[12]
  viability, T/C: 40.2%

## CC(C)(O)C1CCC(Nc2ccc3ncc(-c4cccc(C(F)(F)F)c4)n3n2)CC1 (stereo not drawn) + Cc1cnc(CNC(=O)c2c(=O)c3ccc(N4CCCN(C)CC4)nc3n3c2sc2ccccc23)cn1
Second compound 0.0316 µM
  IC50: 1.11 µM
Second compound 0.1 µM
  IC50: 0.848 µM
Second compound 0.316 µM
  IC50: 1.07 µM
Second compound 1 µM
  IC50: 0.324 µM
Second compound 3.16 µM
  IC50: < 0.0316 µM
Second compound 10 µM
  IC50: < 0.0316 µM
[1]
  viability, T/C: 82.1%
[13]
  viability, T/C: 77.6%
[2]
  viability, T/C: 73.5%
[14]
  viability, T/C: 54.2%
[15]
  viability, T/C: 8.38%
[16]
  viability, T/C: 11.3%
[3]
  viability, T/C: 86.5%
[17]
  viability, T/C: 61.3%
[4]
  viability, T/C: 78.2%
[18]
  viability, T/C: 45.8%
[19]
  viability, T/C: 12.6%
[20]
  viability, T/C: 11.2%
[5]
  viability, T/C: 75.2%
[21]
  viability, T/C: 52.5%
[6]
  viability, T/C: 62.6%
[22]
  viability, T/C: 52.5%
[23]
  viability, T/C: 8.9%
[24]
  viability, T/C: 11.4%
[7]
  viability, T/C: 67.3%
[25]
  viability, T/C: 59.8%
[8]
  viability, T/C: 46.9%
[26]
  viability, T/C: 34.7%
[27]
  viability, T/C: 1.37%
[28]
  viability, T/C: 4.04%
[9]
  viability, T/C: 44.2%
[29]
  viability, T/C: 40.6%
[10]
  viability, T/C: 50.6%
[30]
  viability, T/C: 17.7%
[31]
  viability, T/C: 0.11%
[32]
  viability, T/C: 0.15%
[11]
  viability, T/C: 24.7%
[33]
  viability, T/C: 21.9%
[12]
  viability, T/C: 12.1%
[34]
  viability, T/C: 0.26%
[35]
  viability, T/C: 0.2%
[36]
  viability, T/C: 0.19%

## CC(C)(O)C1CCC(Nc2ccc3ncc(-c4cccc(C(F)(F)F)c4)n3n2)CC1 (stereo not drawn) + Cc1[nH]c2ccc(F)cc2c1-c1nc2c3cccnc3c3ncccc3c2[nH]1
Second compound 0.0316 µM
  IC50: > 10 µM
Second compound 0.1 µM
  IC50: > 10 µM
Second compound 0.316 µM
  IC50: > 10 µM
Second compound 1 µM
  IC50: > 10 µM
Second compound 3.16 µM
  IC50: > 10 µM
Second compound 10 µM
  IC50: > 10 µM
[1]
  viability, T/C: 109%
[13]
  viability, T/C: 99.1%
[2]
  viability, T/C: 109%
[14]
  viability, T/C: 95.6%
[15]
  viability, T/C: 99.8%
[16]
  viability, T/C: 82.5%
[3]
  viability, T/C: 110%
[17]
  viability, T/C: 100%
[4]
  viability, T/C: 103%
[18]
  viability, T/C: 100%
[19]
  viability, T/C: 100%
[20]
  viability, T/C: 81.9%
[5]
  viability, T/C: 101%
[21]
  viability, T/C: 102%
[6]
  viability, T/C: 97.6%
[22]
  viability, T/C: 93.2%
[23]
  viability, T/C: 99.7%
[24]
  viability, T/C: 80.1%
[7]
  viability, T/C: 102%
[25]
  viability, T/C: 89.4%
[8]
  viability, T/C: 96.8%
[26]
  viability, T/C: 87.6%
[27]
  viability, T/C: 91.4%
[28]
  viability, T/C: 78%
[9]
  viability, T/C: 91.6%
[29]
  viability, T/C: 86.9%
[10]
  viability, T/C: 76.4%
[30]
  viability, T/C: 89.5%
[31]
  viability, T/C: 93.5%
[32]
  viability, T/C: 62.5%
[11]
  viability, T/C: 79%
[33]
  viability, T/C: 68.6%
[12]
  viability, T/C: 81.7%
[34]
  viability, T/C: 80.5%
[35]
  viability, T/C: 80%
[36]
  viability, T/C: 67.3%

## C=CC(=O)N1CCN(c2nc(=O)n(-c3c(C)ccnc3C(C)C)c3nc(-c4c(O)cccc4F)c(F)cc23)C(C)C1 (stereo not drawn) + Cc1[nH]c2ccc(F)cc2c1-c1nc2c3cccnc3c3ncccc3c2[nH]1
Second compound 0.0316 µM
  IC50: > 10 µM
Second compound 0.1 µM
  IC50: > 10 µM
Second compound 0.316 µM
  IC50: > 10 µM
Second compound 1 µM
  IC50: > 10 µM
Second compound 3.16 µM
  IC50: > 10 µM
Second compound 10 µM
  IC50: > 10 µM
[1]
  viability, T/C: 108%
[13]
  viability, T/C: 86%
[2]
  viability, T/C: 107%
[14]
  viability, T/C: 83%
[15]
  viability, T/C: 93.2%
[16]
  viability, T/C: 90.2%
[3]
  viability, T/C: 101%
[17]
  viability, T/C: 87.6%
[4]
  viability, T/C: 99.9%
[18]
  viability, T/C: 67.8%
[19]
  viability, T/C: 104%
[20]
  viability, T/C: 106%
[5]
  viability, T/C: 102%
[21]
  viability, T/C: 95.7%
[6]
  viability, T/C: 84.2%
[22]
  viability, T/C: 94.8%
[23]
  viability, T/C: 86.9%
[24]
  viability, T/C: 92.8%
[7]
  viability, T/C: 80.5%
[25]
  viability, T/C: 90%
[8]
  viability, T/C: 79.6%
[26]
  viability, T/C: 101%
[27]
  viability, T/C: 104%
[28]
  viability, T/C: 76.8%
[9]
  viability, T/C: 69%
[29]
  viability, T/C: 77.1%
[10]
  viability, T/C: 81.5%
[30]
  viability, T/C: 86.5%
[31]
  viability, T/C: 90.3%
[32]
  viability, T/C: 86.8%
[11]
  viability, T/C: 73.6%
[33]
  viability, T/C: 81.2%
[12]
  viability, T/C: 86.2%
[34]
  viability, T/C: 82.7%
[35]
  viability, T/C: 81.8%
[36]
  viability, T/C: 69.1%
